The numbers were not newly measured in US11666623B2, “Tetramaleimide linkers and use thereof” (NewBio Therapeutics, Inc., priority 2017, dated 2023), which cites them from elsewhere.

The structures appear in SMILES notation.

The data set deals with human carcinoma lines. As to conditions: cited from earlier work.

With `COc1cccc2c1C(=O)c1c(O)c3c(c(O)c1C2=O)C[C@@](O)(C(=O)CO)C[C@@H]3O[C@H]1C[C@H](N)[C@H](O)[C@H](C)O1` [doxorubicin, Doxorubicin], the IC50 was 100 to 200 nM.
